Experimental data published in US20220265591A1, “USE OF AN OSMOLYTE IN MANUFACTURE OF A MEDICAMENT FOR TREATMENT OF OCULAR DISORDERS” (SINGAPORE HEALTH SERVICES PTELTD, priority 2019, published 2022).

Experiments:
[1] = biological target: T1, TGFBIp611-633 N622K peptide (Homo sapiens, UniProt Q15582, N622K); assay: Circular Dichroism assay, inhibition of amyloid fibrillation; type: biochemical; details: TGFBIp-N622K, final time point, read-out: % Inhibition at final time point, CD
T1 construct: The TGFBIp^611-633 N622K peptides were treated with 200 mM and 320 mM of taurine; purchased Synpeptide Co Ltd, Shanghai, China; host or cells: synthetic peptide
T1 sequence (Q15582 611-633 N622K limits assumed): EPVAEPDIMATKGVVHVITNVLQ
Experimental: Circular Dichroism (CD) spectroscopy was performed to study the changes in the secondary structure of the peptides. The TGFBIp^611-633 G623R peptides were treated with 200 mM and 320 mM of taurine in PBS buffer at pH 7.0 for 24 h, 48 h and 72 h, respectively. While the TGFBIp^611-633 N622K peptides were treated with 200 mM and 320 mM of taurine in PBS buffer at pH 7.0 for 72 h, 96 h, 120 h, 144 h, 192 h, 216 h, and 240 h, respectively. The treatment solutions were studied by far UV-CD assay.

[2] = biological target: T2, preformed amyloid fibrils from TGFBIp611-633 N622K peptide (Homo sapiens, UniProt Q15582, N622K); assay: ThT fluorescence assay, dissolution of preformed amyloid fibrils; type: biochemical; details: TGFBIp-N622K preformed fibrils
T2 construct: purchased Synpeptide Co Ltd, Shanghai, China; host or cells: synthetic peptide
Experimental: The model peptides TGFBIp^611-633 G623R and TGFBIp^611-633 N622K were incubated in PBS for 24 hours for the TGFBIp^611-633 G623R peptide and 96 hours for the TGFBIp^611-633 N622K peptide, allowed to form uniform amyloid fibrils. The formation of amyloid fibrils was confirmed by (SEM) and CD spectroscopy.
The preformed amyloid fibrils were treated with taurine at a concentration of 200 mM and 320 mM for up to 72 hours, respectively. The preformed amyloid fibrils incubated with PBS were used as controls.
The samples were collected at 24 h, 48 h and 72 h after treatment for the TGFBIp^611-633 G623R peptides, and at 24 h, 48 h, 96 h and 144 h after treatment for the TGFBIp^611-633 N622K peptides. The samples were then treated with 30 μM ThT in PBS buffer at pH 5.5 in a 96-well microplate for ThT fluorescence assay. The microplate was excited at 445 nm and the resulting emission fluorescence at 485 nm was measured using a microplate reader.

inhibition at 200000 µM ([1]; 200 mM): 39% | inhibition at 320000 µM ([1]; 320 mM): 66% | % Dissolution at final time point, ThT ([2]; 200 mM): 83% | % Dissolution at final time point, ThT ([2]; 200 mM, listed as taurine): 83% | % Dissolution at final time point, ThT ([2]; 320 mM): 88% | % Dissolution at final time point, ThT ([2]; 320 mM, listed as taurine): 88%
Compound: NCCS(=O)(=O)O [Taurine, taurine]
